Key:
THX cells = assay: Photochemically induced GFP expression after pEGFP-N1-pLys transfection (flow cytometry); format: cell-based; conditions: for change in GFP expression with photosensitiser and light: pEGFP-N1-pLys complex plus photosensitiser and light, FIG. 5a, 5b; for fraction of the cells positive for GFP: AlPcS2a plus pEGFP-N1-pLys complex
Protocol: Plasmid-pLys complexes (charge ratio, 1.7) were prepared by gently mixing 5 μg plasmid (pEGFP-N1; Clontech Laboratories, Inc., Palo Alto, Calif.) in 75 μl of HBS with 5.3 μg pLys (MW 20700; Sigma, St. Louis, Mo.) in 75 μl of HBS. The solutions were incubated for 30 min at room temperature, diluted with culture medium and added to the cells.
THX cells were incubated with 20 μg/ml AlPcS2a for 18 hours at 37° C., washed and incubated in sensitizer-free medium for 3 hours before incubation with plasmid-pLys complexes for 2 hours. The pEGFP-N1/pLys treated THX cells were washed once and incubated for 2 hours in culture medium without additions before exposure to light. The cells were incubated at 37° C. for 2 days, subcultured and further incubated for an additional 5 days before analysis of GFP expression by flow cytometry.
The cells were trypsinised, centrifuged, resuspended in 400 μl of culture medium and filtered through a 50 μm mesh nylon filter. The cells were then analysed in a FACStar plus flow cytometer (Becton Dickinson). Green Fluorescent Protein (GFP) was measured through a 510-530 nm filter after excitation with an argon laser (200 mW) tuned on 488 nm. AlPcS2a was measured through a 650 nm longpass filter after excitation with a krypton laser (50 mW) tuned on 351-356 nm. Cell doublets were discriminated from single cells by gating on the pulse width of the GFP fluorescence signal. The data were analysed with PC Lysys II software (Becton Dickinson).
The expression of GFP was analysed by flow cytometry (FIGS. 5a and b) and fluorescence microscopy (data not shown). […] The fraction of the cells that was positive for this reporter molecule increased from 1% at no light treatment to 50% after a 5-min light exposure. […] Consequently, in a light-directed manner, PCI can substantially increase the efficiency of transfection of a functional gene to THX cells.

BL2-G-E6 cells = assay: Photochemically induced relocalisation of fluorescein-labelled ras peptide (fluorescence microscopy); format: cell-based, mouse; conditions: peptide plus AlPcS2a; after a 4-min exposure to red light
Protocol: Two different light sources were used for treatment of the cells, both consisting of a bank of 4 fluorescent tubes.
The cells were analysed by fluorescence microscopy as described in Berg. K., et al., Biochem. Biophys. Acta., 1370: 317-324, 1998. For analysis of fluorescein-labelled molecules the microscope was equipped with a 450-490 nm excitation filter, a 510 nm dichroic beam splitter and a 510-540 nm band pass emission filter.
BL2-G-E6 cells were incubated with 30 μg/ml of the fluorescein-labelled p21^ras-derived peptide for 18 hours followed by 20 μg/ml AlPcS2a for 18 hours and 1 hour in drug-free medium before exposure to red light.
To evaluate PCI for cytosolic delivery of cancer-specific peptides, a fluorescein-labelled p21^ras peptide encompassing residues 5-21 and containing a Val^12 mutation (G12V) was used (Gjertsen, M. K., et al., Int. J. Cancer, 72: 784-790, 1997). […] Similar effects were not observed in cells exposed to the fluorescein-labelled ras peptide and light only (data not shown).

NHIK 3025 cells = assay: PCI-induced release of endocytosed HRP into the cytosol; format: cell-based, human; conditions: 3.2 μg/ml TPPS2a and 1 mg/ml HRP for 18 h, then light; FIG. 4
Protocol: In this experiment NHIK 3025 cells (carcinoma cells in situ from human cervix) were treated with the photosensitising agent TPPS2a (3.2 μg/ml) and 1 mg/ml HRP for 18 hours. HRP activity was measured according to the procedure described in Steinman et al., J. Cell Biol., 68: 665-687, 1976. Cytosol was separated from cytosol-free cell corpses by electropermeabilisation and a density centrifugation technique (Berg et al., Int. J. Cancer 59: 814-822, 1994).

Compound | change in GFP expression with photosensitiser and light (THX cells) | localisation after light exposure (BL2-G-E6 cells) | fraction of the cells positive for GFP (THX cells; after a 5-min light exposure) | fraction of the cells positive for GFP (THX cells; no light treatment) | fraction of endocytosed HRP released into the cytosol (NHIK 3025 cells)
Oc1cccc(-c2c3nc(c(-c4cccc(O)c4)c4ccc([nH]4)c(-c4cccc(O)c4)c4nc(c(-c5cccc(O)c5)c5ccc2[nH]5)C=C4)C=C3)c1 [3-THPP] | only a minor increase | – | – | – | –
aluminum phthalocyanine with 2 sulfonate groups on adjacent phenyl rings [AlPcS2a] | strong increase | located diffusely in the cytoplasm | 50% | 1% | –
Horseradish Peroxidase [HRP] | – | – | – | – | > 60%
